Experimental data: patent US8530669B2, “Ester compound and use thereof” (Sumitomo Chemical Company, Limited, priority 2010, dated 2013)

How the values were obtained:
[1] = system: German cockroaches (Blattella germanica); assay: Test Example 8: oil solution spray knock-down test on German cockroaches; format: in vivo; settings: adult German cockroaches, 1.5 ml of 0.00625% (w/v) oil solution sprayed, repeated once
Experimental: Zero point zero zero six two five (0.00625) part of the compound of the present inventions (1), (2), (3), (4) and (5) was dissolved in 10 parts of isopropyl alcohol and the solution was mixed with 89.99375 parts of deodorized kerosene to prepare a 0.00625% (w/v) oil solution.
Ten adult German cockroaches (Blattella germanica, 5 males and 5 females) were released in a test container (diameter 8.75 cm, 7.5 cm high, the bottom face is made of 16 mesh metallic wire), the inner face on which butter was applied, and the container was set at the bottom of a test chamber (bottom face: 46 cm×46 cm, height: 70 cm).
Each 1.5 ml of the oil solution of the compound of the present invention (1), (2), (3), (4) and (5) was sprayed using a spray gun at a pressure of 0.4 kg/cm^2 from 60 cm higher than the upper face of the container. Thirty seconds after the spraying, the container was pulled out from the chamber. Two minutes after spraying, the number of knocked-down cockroaches was counted and a knock-down ratio was determined (repeated once). A knocked-down ratio was calculated by the following equation. Knocked-down ratio(%)=(Number of knocked-down cockroaches/Number of test cockroaches)×100 The results (2 minutes after spraying) are shown in Table 5.

[2] = system: American cockroaches (Periplaneta Americana); assay: Test Example 7: oil solution spray knock-down test on American cockroaches; format: in vivo; settings: adult American cockroaches, 1.5 ml of 0.1% (w/v) oil solution sprayed, repeated twice
Experimental: (§1) Zero point one (0.1) part of the compound of the present inventions (1), (2) and (4) was dissolved in 10 parts of isopropyl alcohol and the solution was mixed with 89.9 parts of deodorized kerosene to prepare a 0.1% (w/v) oil solution.
(§2) Six adult American cockroaches (Periplaneta Americana, 3 males and 3 females) were released in a test container (diameter 12.5 cm, 10 cm high, the bottom face is made of 16 mesh metallic wire), the inner face on which butter was applied, and the container was set at the bottom of a test chamber (bottom face: 46 cm×46 cm, height: 70 cm). Each 1.5 ml of the oil solution of the compound of the present invention (1), (2) and (4) was sprayed using a spray gun at a pressure of 0.4 kg/cm^2 from 60 cm higher than the upper face of the container. Thirty seconds after the spraying, the container was pulled out from the chamber. Three minutes after spraying, the number of knocked-down cockroaches was counted and a knock-down ratio was determined (repeated twice). The knocked-down ratio was calculated by the following equation. Knocked-down ratio(%)=(Number of knocked-down cockroaches/Number of test cockroaches)×100

[3] = system: American cockroaches (Periplaneta Americana); assay: Test Example 1: oil solution spray knock-down test on American cockroaches; format: in vivo; settings: adult American cockroaches, 1.5 ml of 0.1% (w/v) oil solution sprayed, repeated twice
Experimental: as §1
as §2, with “After a prescribed time,” for “Three minutes after spraying,”
For comparison, the test was conducted in the same manner as the above, except for using 2,5-dioxo-3-(2-propynyl)imidazolidinylmethyl=(1R)-cis-3-((Z)-2-cyano-2-methoxyethenyl)-2,2-dimethylcyclopropane carboxylate (compound described in JP-A-60-16962, hereinafter referred to as the comparative compound (1)) represented by the following formula: […]

[4] = system: common mosquitoes (Culex pipens pallens); assay: Test Example 2: oil solution spray knock-down test on common mosquitoes in glass chamber; format: in vivo; settings: adult female Culex pipens pallens, 0.025% (w/v) oil solution sprayed into 70 cm cubic glass chamber, 1 minute after spraying
Experimental: Zero point zero two five (0.025) part of the compound of the present invention (1) and (4) was dissolved in 10 parts of isopropyl alcohol, and the solution was mixed with 89.975 parts of deodorized kerosene to prepare a 0.025% (w/v) oil solution.
(§3) Ten adult female common mosquitoes (Culex pipens pallens) were released in a cubic glass chamber having each side of 70 cm. The oil solution of the compound of the present invention (1) and (4) was sprayed into the chamber through a small window on the side of the chamber using a spraying gun at a pressure of 0.9 kg/cm^2. One minutes after spraying, the number of knocked-down mosquitoes was counted and a knock-down ratio was determined. A knocked-down ratio was calculated by the following equation. Knocked-down ratio(%)=(Number of knocked-down mosquitoes/Number of test mosquitoes)×100

[5] = system: houseflies (Musca domestica); assay: Test Example 3: oil solution spray knock-down test on houseflies in glass chamber; format: in vivo; settings: adult Musca domestica, 0.7 ml of 0.025% (w/v) oil solution sprayed into 70 cm cubic glass chamber
Experimental: Zero point zero two five (0.025) part of the compound of the present invention (1) and (4) was dissolved in 10 parts of isopropyl alcohol, and the solution was mixed with […] parts of deodorized kerosene to prepare a 0.025% (w/v) oil solution.
as §3, with “houseflies (Musca domestica)” for “female common mosquitoes (Culex pipens pallens)”, “cm, and 0.7 ml of the” for “cm. The”, “Five” for “One”, “flies” for “mosquitoes”, “flies/Number” for “mosquitoes/Number”, “flies)×100” for “mosquitoes)×100”

Structure (SMILES)	Knock-down ratio (%) 2 minutes after spraying [1] [%]	Knock-down ratio (%) 3 minutes after spraying [2] [%]	Knock-down ratio (%) 2 minutes after spraying [3] [%]	Knock-down ratio (%) 1 minutes after spraying [4] [%]	Knock-down ratio (%) 5 minutes after spraying [5] [%]	melting point [°C]
C#CCn1c(C)nn(COC(=O)[C@@H]2[C@@H](C=C(C#N)SCC)C2(C)C)c1=O [compound of the present invention (3), 3-methyl-5-oxo-4-(2-propynyl)-4,5-dihydro-[1,2,4]triazolylmethyl=(1R)-trans-3-[(1EZ)-2-cyano-2-(ethylthio)ethenyl]-2,2-dimethylcyclopropane carboxylate]	100					
C#CCn1c(C)nn(COC(=O)[C@@H]2[C@@H](/C=C(\C#N)SCC)C2(C)C)c1=O [compound of the present invention (4), 3-methyl-5-oxo-4-(2-propynyl)-4,5-dihydro-[1,2,4]triazolylmethyl=(1R)-trans-3-[(1E)-2-cyano-2-(ethylthio)ethenyl]-2,2-dimethylcyclopropane carboxylate]	100	100	100	100	80	
C#CCn1c(C)nn(COC(=O)[C@@H]2[C@@H](C=C(C#N)SC)C2(C)C)c1=O [compound of the present invention (1), 3-methyl-5-oxo-4-(2-propynyl)-4,5-dihydro-[1,2,4]triazolylmethyl=(1R)-trans-3-[(1EZ)-2-cyano-2-(methylthio)ethenyl]-2,2-dimethylcyclopropane carboxylate]	100	100	100	95	80	
C#CCn1c(C)nn(COC(=O)[C@@H]2[C@@H](C=C(C)C)C2(C)C)c1=O [comparative compound (2), 3-methyl-5-oxo-4-(2-propynyl)-4,5-dihydro-[1,2,4]triazolylmethyl=(1R)-trans-3-(2-methyl-1-propenyl)-2,2-dimethylcyclopropane carboxylate, reference compound]			33			
C#CCn1c(C)nn(COC(=O)[C@@H]2[C@@H](/C=C(\C#N)SC)C2(C)C)c1=O [compound of the present invention (2), 3-methyl-5-oxo-4-(2-propynyl)-4,5-dihydro-[1,2,4]triazolylmethyl=(1R)-trans-3-[(1E)-2-cyano-2-(methylthio)ethenyl]-2,2-dimethylcyclopropane carboxylate]	100	100	92			104 to 105
C#CCn1c(C)nn(COC(=O)[C@@H]2[C@@H](C=C(C#N)SCC)C2(C)C)c1=O (relative stereo) [compound of the present invention (5), 3-methyl-5-oxo-4-(2-propynyl)-4,5-dihydro-[1,2,4]triazolylmethyl=(1R)-trans-3-[(1EZ)-2-cyano-2-(ethylthio)ethenyl]-2,2-dimethylcyclopropane carboxylate]	90					
C#CCN1CC(=O)N(COC(=O)[C@@H]2[C@H](/C=C(/C#N)OC)C2(C)C)C1=O [comparative compound (1), 2,5-dioxo-3-(2-propynyl)imidazolidinylmethyl=(1R)-cis-3-((Z)-2-cyano-2-methoxyethenyl)-2,2-dimethylcyclopropane carboxylate, reference compound]			42			
